What was measured:
Bcr-Abl = target: T1, Bcr-Abl (Homo sapiens, UniProt P00519); experiment: Test for activity against Bcr-Abl (phosphorylation ELISA in 32D-bcr/abl cells); assay type: cell-based, murine; conditions: 32D cells transfected with p210 Bcr-Abl; ELISA of Bcr-Abl phosphorylation; read-out: bcrabl32DcEL/ Average<32Dp210IC50 [umol l−1]>
T1 construct: host or cells: murine myeloid progenitor cell line 32Dcl3 (32D-bcr/abl); the other entry of the earlier key: BCR (P11274, Breakpoint cluster region protein)
Description: Test for activity against Bcr-Abl. The murine myeloid progenitor cell line 32Dcl3 transfected with the p210 Bcr-Abl expression vector pGDp210Bcr/Abl (32D-bcr/abl) was obtained from J. Griffin (Dana Faber Cancer Institute, Boston, Mass., USA). The cells express the fusion Bcr-Abl protein with a constitutively active Abl kinase and proliferate growth factor independent. The cells are expanded in RPMI 1640 (AMIMED), 10% fetal calf serum, 2 mM glutamine (Gibco) (“complete medium”), and a working stock is prepared by freezing aliquots of 2×10^6 cells per vial in freezing medium (95% FCS, 5% DMSO (SIGMA)). After thawing, the cells are used during maximally 10-12 passages for the experiments.
For cellular assays, compounds are dissolved in DMSO and diluted with complete medium to yield a starting concentration of 10 μM followed by preparation of serial 3-fold dilutions in complete medium. 200,000 32D-Bcr/Abl cells in 50 μL complete medium are seeded per well in 96 well round bottom tissue culture plates. 50 μL per well of serial 3-fold dilutions of the test compound are added to the cells in triplicates. Untreated cells are used as control. The compound is incubated together with the cells for 90 min at 37° C., 5% CO2, followed by centrifugation of the tissue culture plates at 1300 rpm (Beckman GPR centrifuge) and removal of the supernatants by careful aspiration taking care not to remove any of the pelleted cells. The cell pellets are lysed by addition of 150 μL lysis buffer (50 mM Tris/HCl, pH 7.4, 150 mM sodium chloride, 5 mM EDTA, 1 mM EGTA, 1% NP-40, 2 mM sodium ortho-vanadate, 1 mM PMSF, 50 μg/mL aprotinin and 80 μg/mL leupeptin) and either used immediately for the ELISA or stored frozen in the plates at −20° C. until usage.
Black ELISA plates (Packard HTRF-96 black plates) are precoated over night at 4° C. with 50 ng/well of the rabbit polyclonal anti-abl-SH3 domain Ab 06-466 from Upstate in 50 μL PBS. After washing 3 times with 200 μL/well PBS containing 0.05% Tween20 (PBST) and 0.5% TopBlock (Juro), residual protein binding sites are blocked with 200 μL/well PBST, 3% TopBlock for 4 h at room temperature followed by incubation with 50 μL lysates of untreated or compound-treated cells (20 μg total protein per well) for 3-4 h at 4° C. After 3 washings, 50 μL/well anti-phosphotyrosine Ab PY20(AP) labeled with alkaline phosphatase (Zymed) diluted to 0.2 μg/mL in blocking buffer is added and incubated over night (4° C.). For all incubation steps the plates are covered with plate sealers (Costar). Finally, the plates are washed another three times with washing buffer and once with deionized water before addition of 90 μL/well of the AP-substrate CDPStar RTU with Emerald II. The plates, now sealed with Packard TopSeal™-A plate sealers, are incubated for 45 min at room temperature in the dark and luminescence is quantified by measuring counts per second (CPS) with a Packard Top Count Microplate Scintillation Counter (Top Count). The difference between the ELISA-readout (CPS) obtained for with the lysates of the untreated 32D-Bcr/Abl cells and the readout for the assay-background (all components, but without cell lysate) is calculated and taken as 100% reflecting the constitutively phosphorylated Bcr-Abl protein present in these cells. The activity of the compound on the Bcr-Abl kinase activity is expressed as percent reduction of the Bcr-Abl phosphorylation. The values for the IC50 and IC90 are determined from the dose response curves by graphical extrapolation.

c-Abl = target: T2, c-Abl (Homo sapiens, UniProt P00519); experiment: Test for activity against c-Abl protein tyrosine kinase (filter binding assay); assay type: biochemical
T2 construct: The His-tagged kinase domain of c-Abl is cloned and expressed in the baculovirus/Sf9 system; His; made in house; host or cells: baculovirus/Sf9
T2 sequence (P00519 242-493 limits assumed): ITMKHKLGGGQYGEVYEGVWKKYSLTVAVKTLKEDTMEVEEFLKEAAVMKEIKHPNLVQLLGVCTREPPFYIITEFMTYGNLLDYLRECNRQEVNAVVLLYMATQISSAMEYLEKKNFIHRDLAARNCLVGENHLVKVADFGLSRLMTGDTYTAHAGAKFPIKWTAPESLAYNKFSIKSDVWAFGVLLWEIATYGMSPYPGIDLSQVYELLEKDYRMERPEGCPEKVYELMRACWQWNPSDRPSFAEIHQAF
Description: Test for activity against c-Abl protein tyrosine kinase. The test is conducted as a filter binding assay as follows: The His-tagged kinase domain of c-Abl is cloned and expressed in the baculovirus/Sf9 system as described by Bhat et al., J. Biol. Chem. 272, 16170-5 (1997). A protein of 37 kD (c-Abl kinase) is purified by a two-step procedure over a cobalt metal chelate column followed by an anion exchange column with a yield of 1-2 mg/L of Sf9 cells. The purity of the c-Abl kinase is >90% as judged by SDS-PAGE after Coomassie blue staining. The assay contains: c-Abl kinase (50 ng), 20 mM Tris.HCl, pH 7.5, 10 mM MgCl2, 10 μM Na3VO4, 1 mM DTT and 0.06 μCi/assay [γ^33 P]-ATP (5 μM ATP) using 30 μg/mL poly-Ala,Glu,Lys,Tyr-6:2:5:1 (Poly-AEKY, Sigma P1152) in the presence of 1% DMSO, total volume of 30 μL. Reactions are terminated by adding 10 μL of 250 mM EDTA, and 30 μL of the reaction mixture is transferred onto Immobilon-PVDF membrane (Millipore, Bedford, Mass., USA) previously soaked for 5 min with methanol, rinsed with water, then soaked for 5 min with 0.5% H3PO4 and mounted on vacuum manifold with disconnected vacuum source. After spotting all samples, vacuum is connected and each well rinsed with 200 μL 0.5% H3PO4. Membranes are removed and washed on a shaker with 0.5% H3PO4 (4 times) and once with ethanol. Membranes are counted after drying at ambient temperature, mounting in Packard TopCount 96-well frame, and addition of 10 μL/well of Microscint™ (Packard).

EGF-R (HER-1) = EGF-R (HER-1) (Homo sapiens, UniProt P00533); experiment: Inhibition of the tyrosine kinase activity of EGF-R (HER-1); assay type: biochemical; set-up: dose or concentration left out as unconfirmed
Chain of EGF-R (HER-1) (P00533 25-1210): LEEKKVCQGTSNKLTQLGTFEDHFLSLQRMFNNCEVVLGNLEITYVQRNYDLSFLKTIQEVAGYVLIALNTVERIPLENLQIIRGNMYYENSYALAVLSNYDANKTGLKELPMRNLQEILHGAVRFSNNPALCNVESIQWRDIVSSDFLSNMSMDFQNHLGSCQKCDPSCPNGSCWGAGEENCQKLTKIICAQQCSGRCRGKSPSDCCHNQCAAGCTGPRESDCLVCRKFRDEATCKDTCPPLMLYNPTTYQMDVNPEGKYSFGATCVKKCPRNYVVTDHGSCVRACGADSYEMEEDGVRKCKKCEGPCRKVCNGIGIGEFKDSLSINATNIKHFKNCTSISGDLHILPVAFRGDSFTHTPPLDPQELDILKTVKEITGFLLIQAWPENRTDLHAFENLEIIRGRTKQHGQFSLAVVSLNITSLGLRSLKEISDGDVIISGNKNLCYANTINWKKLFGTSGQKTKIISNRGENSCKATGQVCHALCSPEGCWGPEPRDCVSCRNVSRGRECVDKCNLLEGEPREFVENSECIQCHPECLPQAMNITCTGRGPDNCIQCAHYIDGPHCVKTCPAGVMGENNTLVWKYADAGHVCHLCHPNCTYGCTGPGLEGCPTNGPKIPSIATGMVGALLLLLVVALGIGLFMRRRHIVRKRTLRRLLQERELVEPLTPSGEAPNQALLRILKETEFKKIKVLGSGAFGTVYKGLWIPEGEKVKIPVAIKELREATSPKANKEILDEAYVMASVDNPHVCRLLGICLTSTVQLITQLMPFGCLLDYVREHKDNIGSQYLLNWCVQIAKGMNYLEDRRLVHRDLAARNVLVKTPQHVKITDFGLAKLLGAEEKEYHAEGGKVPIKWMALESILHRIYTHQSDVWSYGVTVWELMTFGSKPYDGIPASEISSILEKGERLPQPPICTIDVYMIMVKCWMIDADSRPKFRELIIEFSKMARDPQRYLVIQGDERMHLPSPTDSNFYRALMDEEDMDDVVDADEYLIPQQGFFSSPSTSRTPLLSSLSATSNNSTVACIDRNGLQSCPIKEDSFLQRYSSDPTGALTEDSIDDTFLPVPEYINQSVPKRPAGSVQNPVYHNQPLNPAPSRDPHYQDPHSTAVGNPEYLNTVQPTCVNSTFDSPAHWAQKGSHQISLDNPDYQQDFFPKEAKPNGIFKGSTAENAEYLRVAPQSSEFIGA

T1 sequence (P00519 28-1130 limits assumed): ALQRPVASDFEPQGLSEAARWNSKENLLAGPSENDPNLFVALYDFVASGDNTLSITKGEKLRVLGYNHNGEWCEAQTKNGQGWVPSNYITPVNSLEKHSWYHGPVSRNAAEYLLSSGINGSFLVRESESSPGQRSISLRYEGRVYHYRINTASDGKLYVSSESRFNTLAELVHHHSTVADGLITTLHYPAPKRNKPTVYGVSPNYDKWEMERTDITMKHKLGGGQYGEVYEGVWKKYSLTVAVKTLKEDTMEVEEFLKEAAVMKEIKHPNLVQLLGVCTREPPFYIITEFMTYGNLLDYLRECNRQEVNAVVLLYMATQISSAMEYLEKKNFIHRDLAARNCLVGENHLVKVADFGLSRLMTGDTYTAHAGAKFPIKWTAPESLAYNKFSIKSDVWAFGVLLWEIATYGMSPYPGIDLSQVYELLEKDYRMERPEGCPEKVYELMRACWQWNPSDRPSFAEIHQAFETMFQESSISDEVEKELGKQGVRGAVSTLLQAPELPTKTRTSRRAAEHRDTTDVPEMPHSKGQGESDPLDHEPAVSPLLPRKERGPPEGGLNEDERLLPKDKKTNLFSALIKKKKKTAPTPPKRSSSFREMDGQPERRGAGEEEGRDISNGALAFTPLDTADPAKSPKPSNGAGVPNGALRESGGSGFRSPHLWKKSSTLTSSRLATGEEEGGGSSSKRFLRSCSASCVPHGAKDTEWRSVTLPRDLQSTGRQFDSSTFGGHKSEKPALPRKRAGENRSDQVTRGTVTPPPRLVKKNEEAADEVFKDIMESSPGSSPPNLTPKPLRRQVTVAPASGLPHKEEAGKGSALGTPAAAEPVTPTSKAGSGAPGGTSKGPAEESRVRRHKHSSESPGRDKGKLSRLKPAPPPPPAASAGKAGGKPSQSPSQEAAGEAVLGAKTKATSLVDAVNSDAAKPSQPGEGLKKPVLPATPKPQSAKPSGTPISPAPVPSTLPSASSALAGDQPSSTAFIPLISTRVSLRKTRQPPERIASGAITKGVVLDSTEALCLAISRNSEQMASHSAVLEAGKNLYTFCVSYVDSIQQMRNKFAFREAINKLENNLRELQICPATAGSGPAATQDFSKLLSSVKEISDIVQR

Row | IC50 (Bcr-Abl) [nM] | IC50 (c-Abl) [nM] | HER-1/ %-inh. [%] (EGF-R (HER-1)) | melting point [°C] | Structure (SMILES)
1 | 903 | 10 | 83 | 275 to 278 | CN(C)c1ncnc2[nH]c(-c3ccc(Cn4cnnn4)cc3)cc12 [Example 27, Dimethyl-[6-(4-tetrazol-1-ylmethyl-phenyl)-7H-pyrrolo[2,3-d]pyrimidin-4-yl]-amine]
2 | 2430 | 130 | 98 | 180 to 182 | CCC(O)(CC)c1ccc(-c2cc3c(NCCCn4cccc4)ncnc3[nH]2)cc1 [Example 33, 3-{4-[4-(3-Pyrrol-1-yl-propylamino)-7H-pyrrolo[2,3-d]pyrimidin-6-yl]-phenyl}-pentan-3-ol]
3 | 944 | 21 | 54 | > 300 | CN(C)c1ncnc2[nH]c(-c3ccc(C(C)(C)O)cc3)cc12 [Example 34, 2-[4-(4-Dimethylamino-7H-pyrrolo[2,3-d]pyrimidin-6-yl)-phenyl]-propan-2-ol]

Reference: patent publication US7625894B2, “Pyrrolo[2,3-d]Pyrimidines as Protein Tyrosine Kinase Inhibitors” (Novartis AG, priority 2004, dated 2009)
